In patent US8080570B2, “α2B and α2C agonists” (Allergan, Inc., priority 2008, dated 2011):

Tests used:
Format in all cases: cell-based
α2C = biological target: T1, α2C (Homo sapiens, UniProt P18825); assay: FLIPR intracellular calcium assay, α2C; settings: for EC50: read-out: α2C potency (EC50); for α2C relative efficacy: value in parentheses, relative to a standard full agonist
T1 sequence (P18825 1-462): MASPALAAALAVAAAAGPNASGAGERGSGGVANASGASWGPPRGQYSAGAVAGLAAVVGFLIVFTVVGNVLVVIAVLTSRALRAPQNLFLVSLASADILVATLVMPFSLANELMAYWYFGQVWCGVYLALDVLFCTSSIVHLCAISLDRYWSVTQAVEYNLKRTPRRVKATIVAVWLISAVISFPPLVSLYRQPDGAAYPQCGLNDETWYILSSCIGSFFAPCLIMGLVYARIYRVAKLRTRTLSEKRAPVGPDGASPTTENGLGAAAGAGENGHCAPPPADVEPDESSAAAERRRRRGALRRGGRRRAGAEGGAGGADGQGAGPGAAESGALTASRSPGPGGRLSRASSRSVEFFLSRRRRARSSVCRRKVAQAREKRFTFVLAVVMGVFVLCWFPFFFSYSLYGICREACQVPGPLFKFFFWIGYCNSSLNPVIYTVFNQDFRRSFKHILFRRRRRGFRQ

α1A = biological target: T2, α1A (UniProt P35348); assay: FLIPR intracellular calcium assay, α1A; settings: for EC50: FLIPR, fluo-3 calcium, NA = not active, read-out: α1A potency (EC50); for α1A relative efficacy: value in parentheses, relative to a standard full agonist
T2 sequence (P35348 1-466): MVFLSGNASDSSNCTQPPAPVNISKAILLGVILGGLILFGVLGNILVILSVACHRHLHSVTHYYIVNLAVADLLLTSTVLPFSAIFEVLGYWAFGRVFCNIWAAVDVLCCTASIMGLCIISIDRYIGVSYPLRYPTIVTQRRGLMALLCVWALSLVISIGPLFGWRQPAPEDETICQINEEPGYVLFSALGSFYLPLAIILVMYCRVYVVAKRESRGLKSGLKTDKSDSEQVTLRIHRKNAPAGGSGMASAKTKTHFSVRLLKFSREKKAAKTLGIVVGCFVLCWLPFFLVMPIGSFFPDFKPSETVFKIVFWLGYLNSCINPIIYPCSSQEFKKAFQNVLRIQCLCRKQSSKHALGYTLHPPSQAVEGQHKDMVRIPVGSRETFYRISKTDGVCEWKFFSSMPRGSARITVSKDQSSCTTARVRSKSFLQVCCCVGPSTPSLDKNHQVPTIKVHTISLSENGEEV
Description: (§1) Selected examples were tested via the intracellular calcium assay known as Fluorometric Imaging Plate Reader (FLIPR) which involves the detection of calcium pulses by fluo-3 for analyzing function proximal to α1 receptor activation. […] The compound's activity is expressed as its relative efficacy compared to a standard full agonist.

α1B = biological target: T3, α1B (UniProt P35368); assay: FLIPR intracellular calcium assay, α1B; settings: for EC50: FLIPR, fluo-3 calcium, NA = not active, read-out: α1B potency (EC50); for α1B relative efficacy: value in parentheses, relative to a standard full agonist
T3 sequence (P35368 1-520): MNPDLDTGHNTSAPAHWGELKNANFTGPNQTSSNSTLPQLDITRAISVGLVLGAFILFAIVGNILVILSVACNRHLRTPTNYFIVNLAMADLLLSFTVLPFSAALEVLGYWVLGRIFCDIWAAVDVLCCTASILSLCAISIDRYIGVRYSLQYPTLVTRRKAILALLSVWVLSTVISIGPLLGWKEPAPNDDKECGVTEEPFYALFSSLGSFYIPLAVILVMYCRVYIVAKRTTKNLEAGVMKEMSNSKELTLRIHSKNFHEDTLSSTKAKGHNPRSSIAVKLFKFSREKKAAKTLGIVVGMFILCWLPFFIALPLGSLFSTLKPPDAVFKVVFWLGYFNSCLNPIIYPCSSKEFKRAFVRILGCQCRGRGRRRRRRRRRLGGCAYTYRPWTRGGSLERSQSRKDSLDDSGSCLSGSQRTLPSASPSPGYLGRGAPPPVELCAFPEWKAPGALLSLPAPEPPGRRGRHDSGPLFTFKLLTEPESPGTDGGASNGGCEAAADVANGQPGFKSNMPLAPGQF
Description: as §1

α2B = biological target: T4, α2B (Homo sapiens, UniProt P18089); assay: FLIPR intracellular calcium assay, α2B; settings: for EC50: FLIPR, fluo-3 calcium, NA = not active, read-out: α2B potency (EC50); for α2B relative efficacy: value in parentheses, relative to a standard full agonist
T4 sequence (P18089 1-450): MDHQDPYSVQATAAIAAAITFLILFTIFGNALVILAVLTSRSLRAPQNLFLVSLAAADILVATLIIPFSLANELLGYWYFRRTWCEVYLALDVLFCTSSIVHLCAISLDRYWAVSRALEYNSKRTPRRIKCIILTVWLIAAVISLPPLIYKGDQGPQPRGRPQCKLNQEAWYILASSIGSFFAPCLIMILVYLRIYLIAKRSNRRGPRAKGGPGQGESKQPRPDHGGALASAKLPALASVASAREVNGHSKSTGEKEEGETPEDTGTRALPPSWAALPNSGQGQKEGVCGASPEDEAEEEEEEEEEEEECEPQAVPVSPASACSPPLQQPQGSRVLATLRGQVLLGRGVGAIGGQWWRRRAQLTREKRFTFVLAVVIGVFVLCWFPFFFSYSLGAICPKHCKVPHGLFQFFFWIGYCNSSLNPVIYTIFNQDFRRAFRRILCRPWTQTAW

α2A = biological target: T5, α2A (Homo sapiens, UniProt P08913); assay: FLIPR intracellular calcium assay, α2A; settings: for EC50: FLIPR, fluo-3 calcium, NA = not active, read-out: α2A potency (EC50); for α2A relative efficacy: value in parentheses, relative to a standard full agonist
T5 sequence (P08913 1-465): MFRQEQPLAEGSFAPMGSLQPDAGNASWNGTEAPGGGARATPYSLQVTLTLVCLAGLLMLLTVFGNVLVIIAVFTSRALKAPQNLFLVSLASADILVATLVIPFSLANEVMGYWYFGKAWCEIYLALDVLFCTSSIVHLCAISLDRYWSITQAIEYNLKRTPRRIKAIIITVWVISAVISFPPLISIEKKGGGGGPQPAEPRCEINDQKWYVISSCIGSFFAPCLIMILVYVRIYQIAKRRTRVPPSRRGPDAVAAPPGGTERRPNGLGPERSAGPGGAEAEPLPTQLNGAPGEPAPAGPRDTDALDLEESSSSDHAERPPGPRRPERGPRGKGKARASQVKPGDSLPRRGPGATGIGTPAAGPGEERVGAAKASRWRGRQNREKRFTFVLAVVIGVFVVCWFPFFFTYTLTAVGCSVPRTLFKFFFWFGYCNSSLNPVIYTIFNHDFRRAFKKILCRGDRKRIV

[1] = FLIPR, fluo-3 calcium, NA = not active

Row | Compound | EC50 (α2C; [1]) | α2C relative efficacy (α2C) | EC50 (α1A) | EC50 (α1B) | EC50 (α2B) | α2B relative efficacy (α2B) | EC50 (α2A) | α2A relative efficacy (α2A) | α1A relative efficacy (α1A) | α2C potency (EC50) (α2C; [1]) | α1B relative efficacy (α1B)
1 | C#CC(CC)NC1=NCCO1 (stereo not drawn) | 0.004 nM | 0.87 | 6540 nM | – | 91.5 nM | 0.82 | 54.7 nM | 0.74 | 0.78 | – | –
2 | C#CC(CCC)NC1=NCCO1 (stereo not drawn) | 65 nM | 0.99 | 3030 nM | > 10000 nM | 386 nM | 0.68 | 664 nM | 0.44 | 0.72 | – | –
3 | C#CC(NC1=NCCO1)c1ccccc1 (stereo not drawn) | – | Potent (0.82) | – | – | – | 1.12 (0.61) | – | 0.04 (0.82) | 0.58 (0.92) | – | –
4 | C#CC(NC1=NCCO1)c1cccc(F)c1F (stereo not drawn) | 6.01 nM | 0.88 | 40.8 nM | 3510 nM | 25.9 nM | 0.50 | 30 nM | 0.79 | 0.96 | – | 0.54
5 | C#CC(NC1=NCCO1)c1cccc(Cl)c1 (stereo not drawn) | 382 nM | 0.78 | 410 nM | 5360 nM | 218 nM | 0.56 | 80.5 nM | 0.88 | 0.81 | – | 0.24

Next, values leading:

Row | EC50 (α2C; [1]) | α2C relative efficacy (α2C) | EC50 (α1A) | EC50 (α1B) | EC50 (α2B) | α2B relative efficacy (α2B) | EC50 (α2A) | α2A relative efficacy (α2A) | α1A relative efficacy (α1A) | α2C potency (EC50) (α2C; [1]) | α1B relative efficacy (α1B) | Compound
6 | 34.6 nM | 0.89 | > 10000 nM | > 10000 nM | 413 nM | 0.77 | 4050 nM | 0.20 | – | – | – | C#CC(C)NC1=NCCO1 (stereo not drawn)
7 | 18.3 nM | 0.98 | 7370 nM | > 10000 nM | 331 nM | 0.48 | > 10000 nM | – | 0.59 | – | – | C#CC(CC(C)C)NC1=NCCO1 (stereo not drawn)
8 | – | 1.02 | 1200 nM | 5940 nM | 64 nM | 0.88 | 16.9 nM | 0.85 | 0.93 | Potent | 0.28 | C#C[C@H](NC1=NCCO1)C(C)C
9 | 127 nM | 0.89 | – | > 10000 nM | 354 nM | 0.71 | 298 nM | 0.41 | – | – | – | C#CC(NC1=NCCO1)C1CC1 (stereo not drawn)
10 | 295 nM | 0.81 | 1650 nM | > 10000 nM | 361 nM | 0.36 | > 10000 nM | – | 0.34 | – | – | C#CC(NC1=NCCO1)c1ccccc1Br (stereo not drawn)
11 | 158 nM | 0.76 | 1140 nM | – | 215 nM | 0.56 | 588 nM | 0.42 | 0.99 | – | – | N#CC(NC1=NCCO1)c1ccccc1 (stereo not drawn)
